Measured values taken from US7776794B2, “Biosensor using living cells on silicon-based microarrays” (The Research Foundation of State University of New York, priority 2003, dated 2010).

System: FT cells
Assay: Amperometric recording of norepinephrine release from pre-loaded FT cells on the microarray upon ATP stimulation
Format: cell-based, Rana catesbeiana
Conditions: ATP final concentration 300 μM in FT medium; FT cells preloaded in 4 mM NE for 15 min; single electrode held at 700 mV (FIG. 9, trace 1)
Procedure: The cells, which have grown to become a confluent monolayer on the surface of the microarray, are “pre-loaded” with medium containing the appropriate amount of an oxidizable molecule, for example, 0.5-10 mM of a catecholamine such as norepinephrine (NE), for a time sufficient for the cells to endocytose the catecholamine, about 1-30 minutes. The pre-loading medium is then replaced with fresh medium, and the solution is grounded with a Ag/AgCl wire.
Within minutes of pre-loading, the cells are then exposed to a biological sample containing an analyte, the detection of which is desired. Binding of analyte to a receptor on the cells' surface increases intracellular calcium, thereby stimulating release of the pre-loaded NE. This secretion event is detected with millisecond temporal resolution via electrochemical oxidation of the secreted compound on an electrode that is voltage-clamped slightly above its redox potential. Increases in current due to oxidation of NE on the Cr/Au electrode is recorded. This is represented schematically in FIG. 4.
A microarray containing a confluent growth of FT cells was subsequently tested. To test the response properties of the cells to ATP (0.3 mM), microarrays with confluent cultures of cells were measured prior to preloading with NE. Then, cells were pre-loaded with varying concentrations of NE and ATP was reapplied. […]

Structure (SMILES): Nc1ncnc2c1ncn2[C@@H]1O[C@H](COP(=O)(O)OP(=O)(O)OP(=O)(O)O)[C@@H](O)[C@H]1O [ATP]
- duration of current response: 9 to 10 min
- peak current above baseline: approximately 800 pA
